Source: patent publication US20250154174A1, “BICYCLIC HETEROCYCLES AS MRGPRX2 ANTAGONISTS” (Incyte Corporation, priority 2023, published 2025)
pIC50: −log10 of the molar value.

What was measured:
Assay type in all cases: cell-based
MRGPRX2 [1] = molecular target: T1, MRGPRX2 (Homo sapiens, UniProt Q96LB1); assay: MRGPRX2 FLIPR calcium mobilization assay; parameters: host or cells: CHO-K1; conditions: CHO-K1 cells stably expressing human MRGPRX2; agonist Cortistatin-14 at EC80; Ca2+ release
T1 sequence (Q96LB1 1-330): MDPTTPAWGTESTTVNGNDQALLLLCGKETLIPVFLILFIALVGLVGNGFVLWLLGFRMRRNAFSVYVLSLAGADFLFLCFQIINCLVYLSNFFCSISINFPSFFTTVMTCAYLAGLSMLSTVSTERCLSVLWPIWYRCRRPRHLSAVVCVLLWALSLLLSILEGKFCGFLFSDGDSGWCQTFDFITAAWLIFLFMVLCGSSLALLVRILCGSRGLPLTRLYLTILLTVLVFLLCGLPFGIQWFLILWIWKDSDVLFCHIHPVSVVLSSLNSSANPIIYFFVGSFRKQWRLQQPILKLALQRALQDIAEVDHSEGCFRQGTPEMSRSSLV
Protocol: Chinese hamster ovary (CHO-K1) cells stably expressing human MRGPRX2 were purchased from Genescript (Piscataway, NJ). The cells were maintained in culture medium (Ham's F-12K) containing 10% (v/v) FBS, 200 μg/mL Zeocin, 100 units/mL penicillin G and 100 μg/mL streptomycin (Life Technologies, Carlsbad, CA). For the assay, the cells were harvested and resuspended with culture medium without Zeocin before plating at 8000 cells per well in 20 μL in 384-well black clear bottom cell culture plates (VWR, Radnor, PA). After 24 h culture at 37° C. and 5% CO2, the cells were loaded with 20 μL/well of calcium dye (FLIPR Calcium 6 Assay Kit, Molecular Devices, San Jose, CA) diluted in loading buffer (1× Hank's Balanced Salt Solution (HBSS), 5 mM probenecid, 20 mM 4-(2-hydroxyethyl)-1-piperazineethanesulfonic acid (HEPES), pH 7.4, VWR, Radnor, PA) followed with 45 min. incubation at 37° C. and 40 min. at r.t. in the dark. Cells were then treated with the addition of 10 uL/well test compounds with a range of increasing concentrations diluted in the assay buffer (1×HBSS, 20 mM HEPES, pH 7.4, VWR, Radnor, PA) with FLIPR Penta (Molecular Devices. San Jose, CA) and incubated for 30 min. at r.t. Ca^2+ release was measured with FLIPR Penta with 10 s basal fluorescence measurement, then 12.5 μL of 5× agonist Cortistatin-14 (Tocris, Minneapolis, MN) at final concentration corresponding to the EC80 were added followed with continued fluorescence signal monitoring for an additional 110 s. The base line adjusted (median of first 10s base line) max value of the Relative Fluorescence Unit (RFU) was plotted against compound concentrations. Wells with no compound were served as the positive controls, and wells with high concentration of reference antagonist were used as negative controls. IC50 curves were globally fitted with 3- or 4-parameter Hill equation in a Genedata Screener (Genedata Basel, Switzerland).

MRGPRX2 [2] = molecular target: T1, MRGPRX2; assay: MRGPRX2 IP1 HTRF assay; parameters: host or cells: CHO-K1; conditions: CHO-K1 cells stably expressing human MRGPRX2; agonist Cortistatin 14 1 μM; IP1 accumulation
Protocol: This assay measures compound inhibition of myo-Inositol 1 phosphate (IP1) accumulation in CHO-K1 cells. Chinese hamster ovary (CHO-K1) cells stably expressing human MRGPRX2 were purchased from GenScript (Piscataway, NJ).
For the HTRF IP1 determination, an IP-One GqKit (Perkin Elmer Cisbio, Waltham, MA), which includes all reagents and buffers in this protocol, was used. The cells were maintained in culture medium (Ham's F-12K) containing 10% (v/v) FBS, and 200 μg/mL Zeocin. For the assay, the cells were harvested and resuspended in culture medium with 2% FBS and without Zeocin, then were passed through a 40 μm filter. Cells were added at 20000 cells in a 5 μL/well to a 384-well white small volume cell culture plate (Greiner VWR, Radnor, PA) which contained 50 nL/well of test compound serially diluted at a selected concentration range in DMSO. 5 μL/well of prepared 2× Stimulation Buffer2 was then added to plates and was incubated at 37° C. with 5% CO2 for 1 h. 5 μL/well of agonist Cortistatin 14 (Bio-TechneR&D Systems, Minneapolis, MN) in 1×Stimulation Buffer 2, for a 1 μM final concentration, was then added to plates and incubated at 37° C. with 5% CO2 for 1 h. 6 μL/well of 1:20 diluted Detection Reagent Mix (d2 and Cryptate) was added to the plates and incubated for 1 h in the dark. Plates were read on the PHERAstar microplate reader (BMG Labtech Cary, NC) to determine the HTRF ratio of the acceptor and donor emission signals. The IP1 concentrations were calculated from a standard curve following the IP-One GQ kit instructions. Wells with DMSO only and wells with high concentration of reference antagonist were used as controls for normalization. Compound IC50 curves were globally fitted with 3- or 4-parameter Hill equation in a Genedata Screener (Genedata Basel, Switzerland).

MRGPRX2 [3] = molecular target: T1, MRGPRX2; assay: MRGPRX2 β-Arrestin assay; parameters: host or cells: PathHunter CHO-K1; conditions: PathHunter CHO-K1 MRGPRX2 β-Arrestin cell line; agonist Cortistatin 14 0.25 μM
Excerpt: This assay measures compound inhibition of β-Arrestin recruitment, which is part of the G protein-independent pathway that results from the ligand-activated GPCR phosphorylation by specific GPCR kinases. The PathHunter CHO-K1 MRPGRX2 B-Arrestin Cell line stably expressing ProLink tagged MRGPRX2 and Enzyme Acceptor Tagged B-Arrestin was purchased from Eurofins DiscoverX, (Fremont, CA).
The cells were maintained in culture medium from the Europhins DiscoverX Cell Culture Kit-107 which includes FBS, hygromycin B and G418. For the assay, the cells were harvested and were resuspended with Cell Plating Reagent 2 (Eurofins DiscoverX). Cells were added 10000 cells in 25 μL/well to a 384-well black cell culture plate (Greiner VWR, Radnor, PA) which contained 125 nL/well of compound at a selected serially diluted concentration range or DMSO. The plate was incubated at 37° C. with 5% CO2 for 1 h. 2 μL/well of agonist Cortistatin 14 was diluted in Protein Dilution Buffer, (Eurofins DiscoverX) for a final concentration of 0.25 μM, was added and the plate was incubated at 37° C. with 5% CO2 for 90 min. 14 μL/well of Detection Reagent Mix (PathHunter Detection Kit, Eurofins DiscoverX) was added to the plates and further incubated for 1 h in the dark. Plates were read on the PHERAstar microplate reader (BMG Labtech Cary, NC) measuring luminescence 0.1 to 1 s per well. […]

pIC50 (MRGPRX2 [1]) | pIC50 (MRGPRX2 [2]) | pIC50 (MRGPRX2 [3]) | SMILES
7.00 to 10.00 | 7.00 to 10.00 | 7.00 to 10.00 | FC(F)(F)c1cn2c(N[C@H]3CCC[C@@H](Nc4nccc5ncccc45)C3)cccc2n1 [Example 3, (1R,3S)—N^1-(1,6-Naphthyridin-5-yl)-N^3-(2-(trifluoromethyl)imidazo[1,2-a]pyridin-5-yl)cyclohexane-1,3-diamine]
7.00 to 10.00 | 7.00 to 10.00 | 7.00 to 10.00 | FC(F)(F)c1cn2c(N[C@H]3CC[C@@H](Nc4nccn5cncc45)CC3)cccc2n1 [Example 5, (1s,4s)-N^1-(Imidazo[1,5-a]pyrazin-8-yl)-N^4-(2-(trifluoromethyl)imidazo[1,2-a]pyridin-5-yl)cyclohexane-1,4-diamine]
